Assay results as given in US20230355597A1, “COMPOUNDS, COMPOSITIONS, AND METHODS FOR THE TREATMENT AND PREVENTION OF AVIAN PATHOGENIC E. COLI (APEC)” (OHIO STATE INNOVATION FOUNDATION, priority 2018, published 2023).
Marks after values point to notes of the source that are not given here.

Columns and labels:
[1] = tested on: AI-2 activity of APEC O35; experiment: AI-2 bioluminescence indicator assay (V. harveyi BB170); settings: APEC O35, 100 µM
[2] = tested on: AI-2 activity of APEC O18; experiment: as above; settings: APEC O18, 100 µM
APEC O2 in HD-11 cells = experiment: Intracellular survival assay (AI-2 inhibitors); settings: O2, HD-11, 100 µM, 6 h
AI-2 activity of APEC O8 = experiment: AI-2 bioluminescence indicator assay (V. harveyi BB170); settings: APEC O8, 100 µM
Rif^r APEC O78 [3] = experiment: In vivo screening of quorum sensing inhibitors in APEC infected broiler chickens
AI-2 activity of APEC O1 = experiment: AI-2 bioluminescence indicator assay (V. harveyi BB170); settings: APEC O1, 100 µM
AI-2 activity of APEC O2 = experiment: as above; settings: APEC O2, 100 µM
[4] = tested on: AI-2 activity of APEC O15; experiment: as above; settings: APEC O15, 100 µM
[5] = tested on: AI-2 activity of APEC O115; experiment: as above; settings: APEC O115, 100 µM
Rif^r APEC O78 [6] = experiment: Wax moth (Galleria mellonella) larva infection model (AI-2 inhibitors); settings: 48 h post treatment
[7] = tested on: AI-2 activity of APEC O78; experiment: AI-2 bioluminescence indicator assay (V. harveyi BB170); settings: APEC O78, 100 µM
[8] = tested on: QS and virulence associated genes of APEC O78; experiment: qRT-PCR of QS-regulated and virulence factors genes; type: cell-based, avian pathogenic Escherichia coli (APEC); settings: 100 µM, 10 h
Protocol: Quantitative real-time reverse transcription PCR (qRT-PCR). […] APEC O78 was grown in the presence of 100 µM of each compound in a 96-well plate at 37° C. for 10 h. APEC O78 culture treated with 1 µL of 100% DMSO was used as […]. Total RNA was extracted from duplicate wells for each compound (200 µL) using a miRNeasy Mini Kit (Qiagen). RNA quality and quantity was determined by nanodrop 2000 C spectrophotometer (Thermo scientific). Traces of DNA was removed using Genomic DNA removal mix (Qiagen). Approximately, 5 µg of purified RNA was used to synthesize cDNA using the Qiagen RT^2 First Strand Kit (Qiagen). The qRT-PCR was performed using SensiMix™ SYBER® Hi-Rox qPCR Master Mix (Bioline) according to manufacturer instructions in a realplex^2 mastercycler (Eppendorf) with 55° C. annealing temperature. Gene-specific primers were designed using PrimerQuest Tool and obtained from integrated DNA technologies (IDT). The data were normalized to the house-keeping gene, glyceraldehyde-3-phosphate dehydrogenase (GAPDH). The relative fold change was calculated using the ΔΔCt method. Three independent experiments were conducted.

[9] = tested on: AI-2 activity of APEC O109; experiment: AI-2 bioluminescence indicator assay (V. harveyi BB170); settings: APEC O109, 100 µM
[10] = tested on: intracellular APEC O78 in Caco-2 cells; experiment: Intracellular survival assay (cidal SMs); settings: O78, Caco-2, 6 h treatment; superscript = multiple of MIC
[11] = tested on: intracellular APEC O78, O2, and O1 in infected Caco-2, HD11, and THP1 cells; experiment: Intracellular survival assay (cidal SMs), summary over serotypes and cells; settings: overall ranking
APEC O78 [12] = experiment: Loss of 260/280 nm absorbing materials assay; type: cell-based, avian pathogenic Escherichia coli (APEC); settings: 2X MBC, 1 h, *P<0.05 vs DMSO
[13] = tested on: intracellular APEC O2 in Caco-2 cells; experiment: Intracellular survival assay (cidal SMs); settings: O2, Caco-2, 6 h treatment; superscript = multiple of MIC
[14] = tested on: intracellular APEC O1 in THP-1 cells; experiment: Intracellular survival assay (cidal SMs); settings: O1, THP-1, 6 h treatment; superscript = multiple of MIC
[15] = tested on: intracellular APEC O1 in HD11 cells; experiment: Intracellular survival assay (cidal SMs); settings: O1, HD11, 6 h treatment; superscript = multiple of MIC
APEC O115 = type: cell-based, avian pathogenic Escherichia coli (APEC); settings: APEC O115, M63 media; MIC/MBC
APEC O18 = type: cell-based, avian pathogenic Escherichia coli (APEC); settings: APEC O18, M63 media; MIC/MBC
APEC O78 [16] = experiment: Confocal microscopy bacterial cytological profiling; type: cell-based, avian pathogenic Escherichia coli (APEC); settings: 2X MBC
Protocol: Confocal and scanning electron microscopy. Confocal microscopy was used for bacterial cytological profiling (BCP) to identify the cellular pathways targeted by SMs as described previously. […] After incubation, treated cultures were centrifuged, washed, and resuspended in 100 μL PBS. […] Cultures were then centrifuged, washed, and resuspended in PBS to 1⁄10th volume of the original cultures.

APEC O1 = type: cell-based, avian pathogenic Escherichia coli (APEC); settings: APEC O1, M63 media; MIC/MBC
[17] = tested on: intracellular APEC O78 in THP-1 cells; experiment: Intracellular survival assay (cidal SMs); settings: O78, THP-1, 6 h treatment; superscript = multiple of MIC
APEC O2 = type: cell-based, avian pathogenic Escherichia coli (APEC); settings: APEC O2, M63 media; MIC/MBC
APEC O109 = type: cell-based, avian pathogenic Escherichia coli (APEC); settings: APEC O109, M63 media; MIC/MBC
[18] = tested on: intracellular APEC O78 in HD11 cells; experiment: Intracellular survival assay (cidal SMs); settings: O78, HD11, 6 h treatment; superscript = multiple of MIC
APEC O35 = type: cell-based, avian pathogenic Escherichia coli (APEC); settings: APEC O35, M63 media; MIC/MBC
APEC O15 = type: cell-based, avian pathogenic Escherichia coli (APEC); settings: APEC O15, M63 media; MIC/MBC
APEC O8 = type: cell-based, avian pathogenic Escherichia coli (APEC); settings: APEC O8, M63 media; MIC/MBC
[19] = tested on: intracellular APEC O2 in THP-1 cells; experiment: Intracellular survival assay (cidal SMs); settings: O2, THP-1, 6 h treatment; superscript = multiple of MIC
APEC O2-211 = type: cell-based, avian pathogenic Escherichia coli (APEC); settings: APEC O2-211, M63 media; MIC/MBC
APEC O1-63 = type: cell-based, avian pathogenic Escherichia coli (APEC); settings: APEC O1-63, M63 media; MIC/MBC
[20] = tested on: intracellular APEC O1 in Caco-2 cells; experiment: Intracellular survival assay (cidal SMs); settings: O1, Caco-2, 6 h treatment; superscript = multiple of MIC
APEC O78 [21] = type: cell-based, avian pathogenic Escherichia coli (APEC); settings: APEC O78, M63 media; cell prints MIC/MBC
[22] = tested on: biofilm embedded APEC O78; experiment: MBEC High-throughput assay; type: cell-based, avian pathogenic Escherichia coli (APEC); settings: biofilm embedded APEC O78; superscript = multiple of MIC (footnote)
Protocol: Effect against biofilm embedded APEC. The effect of cidal SMs against biofilm embedded APEC was determined using MBEC High-throughput (HTP) assay (Innovotech Inc., AB, Canada). Briefly, 150 µL of 0.05 OD600 adjusted APEC O78 culture was aliquoted into each well of the MBEC device containing polystyrene pegs and incubated at 37° C. for 36 h in LB media under stationary condition. […] The plate was incubated in the dark for 18 h at 37° C. with rotation at 110 rpm. The DMSO (1%) and M63 media were used as positive and negative controls, respectively. Following incubation, MIC of SMs in challenged plate was recorded. The SMs exposed pegs were then transferred to a new 96-well plate containing PBS and sonicated for 30 mins (Aquasonic ultrasonic cleaner, VWR) to disrupt the biofilm. […] Biofilm embedded APEC bacteria were enumerated and minimum biofilm eradication concentration (MBEC) of […] were determined. Two independent experiments were conducted.

[23] = tested on: intracellular APEC O2 in HD11 cells; experiment: Intracellular survival assay (cidal SMs); settings: O2, HD11, 6 h treatment; superscript = multiple of MIC
APEC O78-53 = type: cell-based, avian pathogenic Escherichia coli (APEC); settings: APEC O78-53, M63 media; MIC/MBC

## Cc1ccc(CN2CCN(CCCc3ccccc3)CC2)cc1 [C5]
[1]
  Inhibition % of AI-2 activity: 68%
[2]
  Inhibition % of AI-2 activity: 61%
APEC O2 in HD-11 cells
  clearance of intracellular APEC: 100%
APEC O2 in HD-11 cells; vs DMSO
  reduction of intracellular survival: 3.3 logs
AI-2 activity of APEC O8
  Inhibition % of AI-2 activity: 18%
Rif^r APEC O78 [3]; DMSO control mortality normalized to 100%
  reduction in chicken mortality: 100%
Rif^r APEC O78 [3]; liver, heart, lung and airsac, vs DMSO
  average lesion score reduction: 2.1-2.3
Rif^r APEC O78 [3]; liver, lung, heart, and kidney, vs DMSO control, 'up to'
  reduction of bacterial load in internal organs: 5.2-6.1 log CFU/g
Rif^r APEC O78 [3]; oral gavage once a day, day 4 to day 8, DMSO control 66.7%
  Mortality rate (%): 0%
Rif^r APEC O78 [3]; vs DMSO treated control
  Reduction in APEC lesions severity, Air-sacs (%): 93.3%
  Reduction in APEC lesions severity, Heart (%): 87.5%
  Reduction in APEC lesions severity, Liver (%): 81.8%
  Reduction in APEC lesions severity, Lung (%): 88.9%
Rif^r APEC O78 [3]; vs non-treated and non-infected control group
  effect on body weight gain: increased BWG
AI-2 activity of APEC O1
  Inhibition % of AI-2 activity: 46%
AI-2 activity of APEC O2
  Inhibition % of AI-2 activity: 89%
[4]
  Inhibition % of AI-2 activity: 45%
[5]
  Inhibition % of AI-2 activity: 63%
Rif^r APEC O78 [6]
  larval death: no larval death
[7]
  Inhibition % of AI-2 activity: 83%
[8]
  expression of fliP: down-regulated
  expression of fpr: down-regulated
[9]
  Inhibition % of AI-2 activity: 69%

## CC1CCC(C(C)C)C(OC(=O)Cn2c[n+](CC(=O)OC3CC(C)CCC3C(C)C)c3ccccc32)C1.[Cl-] (stereo not shown) [SM4]
[10]
  SMs intracellular APEC clearance concentration: 50^b µM
[11]
  effectiveness in clearing intracellular APEC serotypes in all tested cells: most effective
APEC O78 [12]; 260 nm absorbing material in supernatant
  Absorbance 260: 3.91*
APEC O78 [12]; 280 nm absorbing material in supernatant
  Absorbance 280: 2.69*
[13]
  SMs intracellular APEC clearance concentration: 100^c µM
[14]
  SMs intracellular APEC clearance concentration: >100 µM
[15]
  SMs intracellular APEC clearance concentration: 50^b µM
APEC O115
  MBC: 25 µM
  MIC: 25 µM
APEC O18
  MBC: 50 µM
  MIC: 25 µM
APEC O78 [16]
  cytological profile (confocal, FM4-64 / SYTO-9): membrane disruptors
APEC O1
  MBC: 50 µM
  MIC: 25 µM
[17]
  SMs intracellular APEC clearance concentration: 56^b µM
APEC O2
  MBC: 50 µM
  MIC: 25 µM
APEC O109
  MBC: 25 µM
  MIC: 25 µM
[18]
  SMs intracellular APEC clearance concentration: 50^b µM
APEC O35
  MBC: 25 µM
  MIC: 25 µM
APEC O15
  MBC: 25 µM
  MIC: 25 µM
APEC O8
  MBC: 25 µM
  MIC: 25 µM
[19]
  SMs intracellular APEC clearance concentration: 100^c µM
APEC O2-211
  MBC: 25 µM
  MIC: 25 µM
APEC O1-63
  MBC: 50 µM
  MIC: 25 µM
[20]
  SMs intracellular APEC clearance concentration: 100^c µM
APEC O78 [21]
  MBC: 50 µM
  MIC: 25 µM
[22]
  MBEC: 25^a µM
[23]
  SMs intracellular APEC clearance concentration: 50^b µM
APEC O78-53
  MBC: 50 µM
  MIC: 25 µM
